According to patent US9085576B2 (AMGEN INC., priority 2013, dated 2015):
Counter-ions that a name gives are not always drawn. Like-named read-outs stand apart in the source and are kept apart here.

How the values were obtained:
Cathepsin D (Cat D) = Cathepsin D (Cat D) (Homo sapiens (Human), UniProt P07339); assay: In vitro enzymatic Cathepsin D (Cat D) FRET assay; assay type: biochemical
Abeta 40 = assay: In vivo inhibition of beta-secretase: Abeta 40 reduction in CSF and brain of the rat; conditions: after 4 hrs; for % reduction of rat CSF levels at 10 pmk / % reduction of rat brain levels at 10 mpk: 10 mpk
Description: In Vivo Inhibition of Beta-Secretase
Several animal models, including mouse, rat, dog, and monkey, may be used to screen for inhibition of beta-secretase activity in vivo following administration of a test compound sample. […] A separate group of animals receive 2% hydroxypropyl methylcellulose, 1% Tween80 alone, containing no test compound, and serve as a vehicle-control group. At the end of the test period, animals are sacrificed and brain tissues, plasma or cerebrospinal fluid are collected. […] Homogenates are centrifuged at 355,000 g, 4° C. for 30 minutes. CSF or brain supernatants are then analyzed for the presence of A-beta peptide by specific sandwich ELISA assays based on ECL (Electrochemiluminescence) technology. For example, rat Abeta40 is measured using biotinylated-4G8 (Signet) as a capture antibody and Fab40 (an in-house antibody specific to the C-terminal of Abeta40) as a detection antibody.
Actual vehicles used: Oral: 2% HPMC, 1% Tween80, pH 2.2

BACE = BACE (Homo sapiens (Human), UniProt P56817); assay: In vitro BACE cell-based assay (Aβ40 in conditioned medium, sandwich ELISA)
[1] = biological target: Beta Secretase enzyme (BACE) (Homo sapiens (Human), UniProt P56817); assay: In vitro enzymatic BACE FRET assay; assay type: biochemical; conditions: read-out: BACE1 Enzyme assay IC50
Chain of Beta Secretase enzyme (BACE) (P56817 46-501): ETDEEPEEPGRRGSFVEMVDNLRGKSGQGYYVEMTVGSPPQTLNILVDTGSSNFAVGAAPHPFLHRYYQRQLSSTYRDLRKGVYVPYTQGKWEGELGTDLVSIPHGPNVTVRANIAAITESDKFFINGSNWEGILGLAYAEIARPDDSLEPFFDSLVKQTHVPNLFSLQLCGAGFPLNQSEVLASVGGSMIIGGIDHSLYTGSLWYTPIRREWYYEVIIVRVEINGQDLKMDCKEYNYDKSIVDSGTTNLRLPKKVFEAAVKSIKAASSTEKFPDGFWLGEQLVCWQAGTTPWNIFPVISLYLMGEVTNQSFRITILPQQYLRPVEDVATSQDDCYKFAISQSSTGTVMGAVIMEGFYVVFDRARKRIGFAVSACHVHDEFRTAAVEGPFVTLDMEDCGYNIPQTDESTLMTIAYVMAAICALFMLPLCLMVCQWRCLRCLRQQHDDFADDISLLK

Chain of Cathepsin D (Cat D) (P07339 65-412, species assumed): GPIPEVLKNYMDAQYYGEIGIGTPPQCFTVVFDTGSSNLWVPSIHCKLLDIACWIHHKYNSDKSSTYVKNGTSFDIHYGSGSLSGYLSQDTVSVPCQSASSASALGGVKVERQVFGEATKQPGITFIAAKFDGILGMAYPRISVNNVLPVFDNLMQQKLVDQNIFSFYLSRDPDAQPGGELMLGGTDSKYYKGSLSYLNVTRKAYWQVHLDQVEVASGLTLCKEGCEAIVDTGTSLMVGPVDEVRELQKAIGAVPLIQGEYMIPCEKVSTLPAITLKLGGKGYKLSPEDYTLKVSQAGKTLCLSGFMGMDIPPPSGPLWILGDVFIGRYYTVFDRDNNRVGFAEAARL
Chain of BACE (P56817 46-501, species assumed): as the sequence (P56817 46-501) above

Cc1cc(Cl)cnc1C(=O)Nc1ccc(F)c([C@@]2(C(F)F)N=C(N)O[C@@H]3C[C@@H]32)c1 [Example 43, N-(3-((1R,5S,6R)-3-amino-5-(difluoromethyl)-2-oxa-4-azabicyclo[4.1.0]hept-3-en-5-yl)-4-fluorophenyl)-5-chloro-3-methylpicolinamide]
IC50 (Cathepsin D (Cat D); Cat D FRET assay, first procedure, read-out: Cat D IC50): > 400 µM
IC50 (Cathepsin D (Cat D); read-out: CatD IC50): 596 µM
% reduction of rat CSF levels at 10 pmk (Abeta 40; Abeta 40 in rat CSF): 70%
% reduction of rat brain levels at 10 mpk (Abeta 40; Abeta 40 in rat brain): 59%
IC50 (BACE): 0.0314 µM
IC50 [1]: 0.0225 µM

Cc1cc(C#N)cnc1C(=O)Nc1ccc(F)c([C@@]2(C(F)F)N=C(N)O[C@@H]3C[C@@H]32)c1 [Example 44, N-(3-((1R,5S,6R)-3-amino-5-(difluoromethyl)-2-oxa-4-azabicyclo[4.1.0]hept-3-en-5-yl)-4-fluorophenyl)-5-cyano-3-methylpicolinamide]
IC50 (Cathepsin D (Cat D); read-out: CatD IC50): 376 µM
% reduction of rat CSF levels (3 mpk) (Abeta 40; Abeta 40 in rat CSF, 3 mpk): 69 (3 mpk) %
% reduction of rat CSF levels at 10 pmk (Abeta 40; Abeta 40 in rat CSF): 80%
% reduction of rat brain levels (3 mpk) (Abeta 40; Abeta 40 in rat brain, 3 mpk): 52 (3 mpk) %
% reduction of rat brain levels at 10 mpk (Abeta 40; Abeta 40 in rat brain): 73%
IC50 (BACE): 0.017 µM
IC50 [1]: 0.0142 µM

COc1cc(C#N)cnc1C(=O)Nc1ccc(F)c([C@@]2(C(F)F)N=C(N)O[C@@H]3C[C@@H]32)c1 [Example 45, N-(3-((1R,5S,6R)-3-amino-5-(difluoromethyl)-2-oxa-4-azabicyclo[4.1.0]hept-3-en-5-yl)-4-fluorophenyl)-5-cyano-3-methoxypicolinamide]
IC50 (Cathepsin D (Cat D); read-out: CatD IC50): 3450 µM
% reduction of rat CSF levels at 10 pmk (Abeta 40; Abeta 40 in rat CSF): 31%
% reduction of rat brain levels at 10 mpk (Abeta 40; Abeta 40 in rat brain): 6%
IC50 (BACE): 0.0372 µM
IC50 [1]: 0.0555 µM

COc1cnc(C(=O)Nc2ccc(F)c([C@@]3(C(F)F)N=C(N)O[C@@H]4C[C@@H]43)c2)c(Cl)c1 [Example 70, N-(3-((1R,5S,6R)-3-amino-5-(difluoromethyl)-2-oxa-4-azabicyclo[4.1.0]hept-3-en-5-yl)-4-fluorophenyl)-3-chloro-5-methoxypicolinamide]
IC50 (Cathepsin D (Cat D); read-out: CatD IC50): 379 µM
% reduction of rat CSF levels at 10 pmk (Abeta 40; Abeta 40 in rat CSF): 65%
% reduction of rat brain levels at 10 mpk (Abeta 40; Abeta 40 in rat brain): 51%
IC50 (BACE): 0.0386 µM
IC50 [1]: 0.0568 µM

NC1=N[C@@](c2cc(NC(=O)c3ccc(Br)cn3)ccc2F)(C(F)F)[C@H]2C[C@H]2O1 [Example 74, N-(3-((1R,5S,6R)-3-amino-5-(difluoromethyl)-2-oxa-4-azabicyclo[4.1.0]hept-3-en-5-yl)-4-fluorophenyl)-5-bromopicolinamide]
IC50 (Cathepsin D (Cat D); read-out: CatD IC50): 282 µM
% reduction of rat CSF levels at 10 pmk (Abeta 40; Abeta 40 in rat CSF): 56%
% reduction of rat brain levels at 10 mpk (Abeta 40; Abeta 40 in rat brain): 46%
IC50 (BACE): 0.0181 µM
IC50 [1]: 0.0247 µM

NC1=N[C@@](c2cc(NC(=O)c3ccc(Cl)cn3)ccc2F)(C(F)F)[C@H]2C[C@H]2O1 [Example 76, N-(3-((1R,5S,6R)-3-amino-5-(difluoromethyl)-2-oxa-4-azabicyclo[4.1.0]hept-3-en-5-yl)-4-fluorophenyl)-5-chloropicolinamide]
IC50 (Cathepsin D (Cat D); read-out: CatD IC50): 684 µM
% reduction of rat CSF levels at 10 pmk (Abeta 40; Abeta 40 in rat CSF): 64%
% reduction of rat brain levels at 10 mpk (Abeta 40; Abeta 40 in rat brain): 60%
IC50 (BACE): 0.0302 µM
IC50 [1]: 0.0266 µM

NC1=N[C@](CF)(c2cc(NC(=O)c3cnc(OCC(F)(F)F)cn3)cc(Cl)c2F)[C@H]2C[C@H]2O1 [Example 90, N-(3-((1R,5S,6R)-3-amino-5-(fluoromethyl)-2-oxa-4-azabicyclo[4.1.0]hept-3-en-5-yl)-5-chloro-4-fluorophenyl)-5-(2,2,2-trifluoroethoxy)pyrazine-2-carboxamide]
IC50 (Cathepsin D (Cat D); read-out: CatD IC50): 913 µM
% reduction of rat CSF levels at 10 pmk (Abeta 40; Abeta 40 in rat CSF): 48%
% reduction of rat brain levels at 10 mpk (Abeta 40; Abeta 40 in rat brain): 31%
IC50 (BACE): 0.0213 µM
IC50 [1]: 0.0136 µM

C#CCOc1cnc(C(=O)Nc2ccc(F)c([C@@]3(C(F)F)N=C(N)O[C@@H]4C[C@@H]43)c2)cn1 [Example 95, N-(3-(((1R,5S,6R)-3-amino-5-(difluoromethyl)-2-oxa-4-azabicyclo[4.1.0]hept-3-en-5-yl)-4-fluorophenyl)-5-(prop-2-yn-1-yloxy)pyrazine-2-carboxamide trifluoroacetate]
IC50 (Cathepsin D (Cat D); read-out: CatD IC50): 143 µM
% reduction of rat CSF levels at 10 pmk (Abeta 40; Abeta 40 in rat CSF): 82%
% reduction of rat brain levels at 10 mpk (Abeta 40; Abeta 40 in rat brain): 77%
IC50 (BACE): 0.008 µM
IC50 [1]: 0.0035 µM

CC#CCOc1cnc(C(=O)Nc2ccc(F)c([C@@]3(C(F)F)N=C(N)O[C@@H]4C[C@@H]43)c2)cn1 [Example 96, N-(3-((1R,5S,6R)-3-amino-5-(difluoromethyl)-2-oxa-4-azabicyclo[4.1.0]hept-3-en-5-yl)-4-fluorophenyl)-5-(but-2-yn-1-yloxy)pyrazine-2-carboxamide trifluoroacetate]
IC50 (Cathepsin D (Cat D); read-out: CatD IC50): 467 µM
% reduction of rat CSF levels at 10 pmk (Abeta 40; Abeta 40 in rat CSF): 24%
% reduction of rat brain levels at 10 mpk (Abeta 40; Abeta 40 in rat brain): 1%
IC50 (BACE): 0.0033 µM
IC50 [1]: 0.001 µM

NC1=N[C@@](c2cc(NC(=O)c3ccc(Cl)cn3)ccc2Cl)(C(F)F)[C@H]2C[C@H]2O1 [Example 99, N-(3-((1R,5S,6R)-3-amino-5-(difluoromethyl)-2-oxa-4-azabicyclo[4.1.0]hept-3-en-5-yl)-4-chlorophenyl)-5-chloropicolinamide]
IC50 (Cathepsin D (Cat D); read-out: CatD IC50): 1050 µM
% reduction of rat CSF levels at 10 pmk (Abeta 40; Abeta 40 in rat CSF): 63%
% reduction of rat brain levels at 10 mpk (Abeta 40; Abeta 40 in rat brain): 58%
IC50 (BACE): 0.0195 µM
IC50 [1]: 0.0227 µM

NC1=N[C@](CF)(c2cc(NC(=O)c3ccc(Cl)cn3)ccc2F)[C@H]2C[C@H]2O1 [Example 117, N-(3-((1R,5S,6R)-3-amino-5-(fluoromethyl)-2-oxa-4-azabicyclo[4.1.0]hept-3-en-5-yl)-4-fluorophenyl)-5-chloropicolinamide]
IC50 (Cathepsin D (Cat D); read-out: CatD IC50): 472 µM
% reduction of rat CSF levels at 10 pmk (Abeta 40; Abeta 40 in rat CSF): 78%
% reduction of rat brain levels at 10 mpk (Abeta 40; Abeta 40 in rat brain): 71%
IC50 (BACE): 0.0053 µM
IC50 [1]: 0.0211 µM

N#Cc1cnc(C(=O)Nc2ccc(Cl)c([C@@]3(CF)N=C(N)O[C@@H]4C[C@@H]43)c2)c(Cl)c1 [Example 127]
IC50 (Cathepsin D (Cat D); read-out: CatD IC50): 997 µM
% reduction of rat CSF levels at 10 pmk (Abeta 40; Abeta 40 in rat CSF): 67%
% reduction of rat brain levels at 10 mpk (Abeta 40; Abeta 40 in rat brain): 50%
IC50 (BACE): 0.0078 µM
IC50 [1]: 0.0395 µM

COc1ccc(C(=O)Nc2ccc(F)c([C@@]3(C(F)F)N=C(N)O[C@@H]4C[C@@H]43)c2)nc1 [Example 130, N-(3-((1R,5S,6R)-3-amino-5-(difluoromethyl)-2-oxa-4-azabicyclo[4.1.0]hept-3-en-5-yl)-4-fluorophenyl)-5-methoxypicolinamide]
IC50 (Cathepsin D (Cat D); read-out: CatD IC50): 988 µM
% reduction of rat CSF levels at 10 pmk (Abeta 40; Abeta 40 in rat CSF): 49%
% reduction of rat brain levels at 10 mpk (Abeta 40; Abeta 40 in rat brain): 23%
IC50 (BACE): 0.0586 µM
IC50 [1]: 0.0845 µM

NC1=N[C@@](c2cc(NC(=O)c3cnc(OCc4ncco4)cn3)ccc2F)(C(F)F)[C@H]2C[C@H]2O1 [Example 167, N-(3-((1R,5S,6R)-3-amino-5-(difluoromethyl)-2-oxa-4-azabicyclo[4.1.0]hept-3-en-5-yl)-4-fluorophenyl)-5-(oxazol-2-ylmethoxy)pyrazine-2-carboxamide]
IC50 (Cathepsin D (Cat D); read-out: CatD IC50): 767 µM
% reduction of rat CSF levels at 10 pmk (Abeta 40; Abeta 40 in rat CSF): 60%
% reduction of rat brain levels at 10 mpk (Abeta 40; Abeta 40 in rat brain): 41%
IC50 (BACE): 0.0103 µM
IC50 [1]: 0.0124 µM

NC1=N[C@@](c2cc(NC(=O)c3cnc(OCc4cocn4)cn3)ccc2F)(C(F)F)[C@H]2C[C@H]2O1 [Example 174, N-(3-((1R,5S,6R)-3-amino-5-(difluoromethyl)-2-oxa-4-azabicyclo[4.1.0]hept-3-en-5-yl)-4-fluorophenyl)-5-(oxazol-4-ylmethoxy)pyrazine-2-carboxamide]
IC50 (Cathepsin D (Cat D); read-out: CatD IC50): 925 µM
% reduction of rat CSF levels at 10 pmk (Abeta 40; Abeta 40 in rat CSF): 46%
% reduction of rat brain levels at 10 mpk (Abeta 40; Abeta 40 in rat brain): 26%
IC50 (BACE): 0.0186 µM
IC50 [1]: 0.0233 µM

N#Cc1ccc(C(=O)Nc2ccc(F)c([C@@]3(CF)N=C(N)O[C@@H]4C[C@@H]43)c2)nc1 [Example 192, N-(3-((1R,5S,6R)-3-amino-5-(fluoromethyl)-2-oxa-4-azabicyclo[4.1.0]hept-3-en-5-yl)-4-fluorophenyl)-5-cyanopicolinamide]
IC50 (Cathepsin D (Cat D); read-out: CatD IC50): 591 µM
% reduction of rat CSF levels at 10 pmk (Abeta 40; Abeta 40 in rat CSF): 81%
% reduction of rat brain levels at 10 mpk (Abeta 40; Abeta 40 in rat brain): 71%
IC50 (BACE): 0.0079 µM
IC50 [1]: 0.0256 µM

NC1=N[C@](CF)(c2cc(NC(=O)c3ncc(Cl)cc3Cl)ccc2F)[C@H]2C[C@H]2O1 [Example 193]
IC50 (Cathepsin D (Cat D); read-out: CatD IC50): 875 µM
% reduction of rat CSF levels at 10 pmk (Abeta 40; Abeta 40 in rat CSF): 75%
% reduction of rat brain levels at 10 mpk (Abeta 40; Abeta 40 in rat brain): 67%
IC50 (BACE): 0.0108 µM
IC50 [1]: 0.0449 µM

CC#CCOc1cnc(C(=O)Nc2ccc(F)c([C@@]3(CF)N=C(N)O[C@@H]4C[C@@H]43)c2)cn1 [Example 199, N-(3-((1R,5S,6R)-3-amino-5-(fluoromethyl)-2-oxa-4-azabicyclo[4.1.0]hept-3-en-5-yl)-4-fluorophenyl)-5-(but-2-yn-1-yloxy)pyrazine-2-carboxamide]
IC50 (Cathepsin D (Cat D); read-out: CatD IC50): 959 µM
% reduction of rat CSF levels at 10 pmk (Abeta 40; Abeta 40 in rat CSF): 62%
% reduction of rat brain levels at 10 mpk (Abeta 40; Abeta 40 in rat brain): 42%
IC50 (BACE): 0.0005 µM
IC50 [1]: 0.0022 µM

N#Cc1cnc(C(=O)Nc2ccc(F)c([C@@]3(CF)N=C(N)O[C@@H]4C[C@@H]43)c2)c(Cl)c1 [Example 228, N-(3-((1R,5S,6R)-3-amino-5-(fluoromethyl)-2-oxa-4-azabicyclo[4.1.0]hept-3-en-5-yl)-4-fluorophenyl)-3-chloro-5-cyanopicolinamide]
IC50 (Cathepsin D (Cat D); read-out: CatD IC50): 1010 µM
% reduction of rat CSF levels at 10 pmk (Abeta 40; Abeta 40 in rat CSF): 54%
% reduction of rat brain levels at 10 mpk (Abeta 40; Abeta 40 in rat brain): 33%
IC50 (BACE): 0.0059 µM
IC50 [1]: 0.0419 µM

COc1cnc(C(=O)Nc2ccc(F)c([C@@]3(CF)N=C(N)O[C@@H]4C[C@@H]43)c2)c(Cl)c1 [Example 229, N-(3-((1R,5S,6R)-3-amino-5-(fluoromethyl)-2-oxa-4-azabicyclo[4.1.0]hept-3-en-5-yl)-4-fluorophenyl)-3-chloro-5-methoxypicolinamide]
IC50 (Cathepsin D (Cat D); read-out: CatD IC50): 956 µM
% reduction of rat CSF levels at 10 pmk (Abeta 40; Abeta 40 in rat CSF): 41%
% reduction of rat brain levels at 10 mpk (Abeta 40; Abeta 40 in rat brain): 8%
IC50 (BACE): 0.0064 µM
IC50 [1]: 0.0341 µM
